Laboratory results published in ChEMBL document CHEMBL4613209, “Quinolone hybrids and their anti-cancer activities: An overview” (Eur J Med Chem, 2019).

What was measured:
MCF7 [1] = assay: Cytotoxicity against human MCF7 cells assessed as reduction in cell viability after 48 hrs by MTT assay; type: functional, cell-based; conditions: MCF7, 48 h
T47D = assay: Cytotoxicity against human T47D cells assessed as reduction in cell viability after 48 hrs by MTT assay; type: functional, cell-based
MDA-MB-231 = assay: Cytotoxicity against human MDA-MB-231 cells assessed as reduction in cell viability after 48 hrs by MTT assay; type: functional, cell-based; conditions: MDA-MB-231, 48 h
[2] = target: T1, Inhibitor of nuclear factor kappa-B kinase subunit alpha (Homo sapiens, UniProt O15111); assay: Inhibition of IKKalpha (unknown origin)
T1 sequence (O15111 whole entry): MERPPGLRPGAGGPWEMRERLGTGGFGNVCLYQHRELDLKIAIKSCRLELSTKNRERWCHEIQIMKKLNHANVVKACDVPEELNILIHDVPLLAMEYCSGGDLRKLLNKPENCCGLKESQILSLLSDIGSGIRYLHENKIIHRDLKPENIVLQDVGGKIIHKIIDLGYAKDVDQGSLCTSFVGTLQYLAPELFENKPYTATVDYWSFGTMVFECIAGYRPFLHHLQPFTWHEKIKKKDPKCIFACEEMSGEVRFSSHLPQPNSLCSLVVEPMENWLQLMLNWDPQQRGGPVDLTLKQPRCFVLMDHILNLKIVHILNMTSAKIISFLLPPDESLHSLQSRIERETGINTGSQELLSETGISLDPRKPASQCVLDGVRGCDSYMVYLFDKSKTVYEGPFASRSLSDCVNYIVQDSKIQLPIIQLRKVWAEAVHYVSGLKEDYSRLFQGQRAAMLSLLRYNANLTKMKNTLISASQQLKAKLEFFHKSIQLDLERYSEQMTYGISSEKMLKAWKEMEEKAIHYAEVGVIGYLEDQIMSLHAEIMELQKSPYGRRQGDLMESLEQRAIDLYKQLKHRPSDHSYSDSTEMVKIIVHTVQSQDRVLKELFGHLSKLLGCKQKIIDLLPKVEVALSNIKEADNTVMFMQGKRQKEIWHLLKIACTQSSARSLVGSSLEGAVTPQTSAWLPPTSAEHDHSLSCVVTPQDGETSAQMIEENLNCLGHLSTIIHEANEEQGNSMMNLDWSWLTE

[3] = target: RAC-alpha serine/threonine-protein kinase (Homo sapiens, UniProt P31749); assay: Inhibition of PKBalpha (unknown origin)
Chain of RAC-alpha serine/threonine-protein kinase (P31749 whole entry): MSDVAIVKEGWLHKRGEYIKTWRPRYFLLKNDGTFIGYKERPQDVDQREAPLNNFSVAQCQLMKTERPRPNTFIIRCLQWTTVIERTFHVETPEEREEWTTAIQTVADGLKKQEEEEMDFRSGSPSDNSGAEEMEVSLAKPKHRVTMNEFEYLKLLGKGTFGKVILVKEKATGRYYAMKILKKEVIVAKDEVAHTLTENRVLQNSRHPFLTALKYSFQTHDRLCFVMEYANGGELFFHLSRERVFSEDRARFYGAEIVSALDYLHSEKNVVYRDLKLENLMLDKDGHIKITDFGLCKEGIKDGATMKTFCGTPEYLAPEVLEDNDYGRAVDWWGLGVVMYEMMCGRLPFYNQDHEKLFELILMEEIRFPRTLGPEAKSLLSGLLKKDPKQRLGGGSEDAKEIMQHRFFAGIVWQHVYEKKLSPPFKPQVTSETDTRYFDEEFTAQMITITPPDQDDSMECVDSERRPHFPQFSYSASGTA

[4] = target: RAC-beta serine/threonine-protein kinase (Homo sapiens, UniProt P31751); assay: Inhibition of PKBbeta (unknown origin)
Chain of RAC-beta serine/threonine-protein kinase (P31751 whole entry): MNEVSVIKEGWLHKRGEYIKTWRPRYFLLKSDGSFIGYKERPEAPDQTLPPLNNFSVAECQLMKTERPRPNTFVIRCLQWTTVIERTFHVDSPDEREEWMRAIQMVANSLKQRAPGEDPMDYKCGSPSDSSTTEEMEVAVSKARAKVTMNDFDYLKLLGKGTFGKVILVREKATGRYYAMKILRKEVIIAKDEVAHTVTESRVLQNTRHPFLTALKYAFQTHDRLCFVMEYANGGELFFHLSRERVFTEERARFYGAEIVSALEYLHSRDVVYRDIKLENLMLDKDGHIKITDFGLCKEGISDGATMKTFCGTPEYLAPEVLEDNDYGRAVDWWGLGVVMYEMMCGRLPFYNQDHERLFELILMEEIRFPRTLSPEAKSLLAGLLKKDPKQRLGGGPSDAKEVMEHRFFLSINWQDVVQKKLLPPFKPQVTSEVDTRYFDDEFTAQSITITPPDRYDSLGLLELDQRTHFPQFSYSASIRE

[5] = target: RAC-gamma serine/threonine-protein kinase (Homo sapiens, UniProt Q9Y243); assay: Inhibition of PKBgamma (unknown origin)
Chain of RAC-gamma serine/threonine-protein kinase (Q9Y243 whole entry): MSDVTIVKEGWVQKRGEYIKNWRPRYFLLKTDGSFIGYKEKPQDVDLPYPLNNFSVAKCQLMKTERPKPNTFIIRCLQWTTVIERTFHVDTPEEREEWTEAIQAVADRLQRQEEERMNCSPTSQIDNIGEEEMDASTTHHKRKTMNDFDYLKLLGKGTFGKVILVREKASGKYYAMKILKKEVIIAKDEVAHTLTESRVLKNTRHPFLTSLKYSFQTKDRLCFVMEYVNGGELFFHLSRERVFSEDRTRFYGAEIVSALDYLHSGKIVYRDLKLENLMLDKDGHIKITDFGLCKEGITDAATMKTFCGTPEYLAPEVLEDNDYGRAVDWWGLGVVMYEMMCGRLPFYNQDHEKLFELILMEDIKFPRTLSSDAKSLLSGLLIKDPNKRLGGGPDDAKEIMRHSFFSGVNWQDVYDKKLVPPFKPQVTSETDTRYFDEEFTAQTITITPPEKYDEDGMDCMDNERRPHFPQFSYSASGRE

[6] = target: T2, Inhibitor of nuclear factor kappa-B kinase subunit beta (Homo sapiens, UniProt O14920); assay: Inhibition of IKKbeta (unknown origin)
T2 sequence (O14920 whole entry): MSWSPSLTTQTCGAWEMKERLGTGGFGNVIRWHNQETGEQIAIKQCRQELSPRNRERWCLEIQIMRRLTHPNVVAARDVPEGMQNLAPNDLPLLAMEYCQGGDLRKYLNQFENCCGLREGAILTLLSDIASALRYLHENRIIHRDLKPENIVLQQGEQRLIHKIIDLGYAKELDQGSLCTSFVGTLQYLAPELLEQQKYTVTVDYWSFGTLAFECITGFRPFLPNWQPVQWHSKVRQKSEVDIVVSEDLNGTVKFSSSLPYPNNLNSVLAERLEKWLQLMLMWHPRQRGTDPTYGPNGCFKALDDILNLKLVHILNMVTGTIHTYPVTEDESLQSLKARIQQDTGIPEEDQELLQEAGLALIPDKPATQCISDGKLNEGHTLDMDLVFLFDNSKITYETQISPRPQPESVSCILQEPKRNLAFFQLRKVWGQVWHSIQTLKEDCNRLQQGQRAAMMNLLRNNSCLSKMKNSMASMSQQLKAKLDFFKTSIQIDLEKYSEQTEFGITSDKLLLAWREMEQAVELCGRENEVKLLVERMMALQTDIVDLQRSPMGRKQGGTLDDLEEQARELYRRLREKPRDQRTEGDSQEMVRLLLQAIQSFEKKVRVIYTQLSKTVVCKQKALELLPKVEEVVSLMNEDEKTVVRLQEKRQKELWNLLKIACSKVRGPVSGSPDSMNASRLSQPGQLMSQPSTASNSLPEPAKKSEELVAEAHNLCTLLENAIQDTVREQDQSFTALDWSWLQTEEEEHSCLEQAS

SK-MEL3 = assay: Cytotoxicity against human SK-MEL-3 cells assessed as reduction in cell viability after 72 hrs by MTT assay; type: functional, cell-based; conditions: SK-MEL3, 72 h
MCF7 [7] = assay: Cytotoxicity against human MCF7 cells assessed as reduction in cell viability after 72 hrs by MTT assay; type: functional, cell-based; conditions: MCF7, 72 h
ACHN = assay: Cytotoxicity against human ACHN cells assessed as reduction in cell viability after 72 hrs by MTT assay; type: functional, cell-based
A549 [8] = assay: Cytotoxicity against human A549 cells assessed as reduction in cell viability after 72 hrs by MTT assay; type: functional, cell-based; conditions: A549, 72 h
A 172 = assay: Cytotoxicity against human A172 cells assessed as reduction in cell viability after 72 hrs by MTT assay; type: functional, cell-based; conditions: A 172, 72 h
A2780 = assay: Cytotoxicity against human A2780 cells assessed as reduction in cell viability after 72 hrs by MTT assay; type: functional, cell-based; conditions: A2780, 72 h
KB = assay: Cytotoxicity against human KB cells assessed as reduction in cell viability after 72 hrs by MTT assay; type: functional, cell-based
MCF7 [9] = assay: Cytotoxicity against human MCF7 cells assessed as reduction in cell viability; type: functional, cell-based
A549 [10] = assay: Cytotoxicity against human A549 cells assessed as reduction in cell viability; type: functional, cell-based

IC50 [2] [µM]	IC50 [3] [µM]	IC50 [4] [µM]	IC50 [5] [µM]	IC50 [6] [µM]	SMILES	IC50 (SK-MEL3) [µM]	IC50 (MCF7 [7]) [µM]	IC50 (ACHN) [µM]	IC50 (A549 [8]) [µM]	IC50 (A 172) [µM]	IC50 (A2780) [µM]	IC50 (KB) [µM]	further results
					COc1ccc2c(c1)c(=O)c1ccccc1n2Cc1cn(Cc2cc(OC)c(OC)c(OC)c2)nn1								IC50 (MCF7 [1]): > 100 µM; IC50 (T47D): > 100 µM; IC50 (MDA-MB-231): > 100 µM
1.64 to 44.5	1.64 to 44.5	1.64 to 44.5	1.64 to 44.5	1.64 to 44.5	O=C(/C=C/c1nc2cc(F)ccc2[nH]1)c1c(-c2ccccc2)c2cc(Cl)ccc2[nH]c1=O								
					COc1cc(Cn2cc(Cn3c4ccccc4c(=O)c4cc(Cl)ccc43)nn2)cc(OC)c1OC								IC50 (MCF7 [1]): > 100 µM; IC50 (T47D): > 100 µM; IC50 (MDA-MB-231): > 100 µM
					COc1cc(Cn2cc(Cn3c4ccccc4c(=O)c4cccc(OC)c43)nn2)cc(OC)c1OC								IC50 (MCF7 [1]): > 100 µM; IC50 (T47D): > 100 µM; IC50 (MDA-MB-231): > 100 µM
					O=C(O)c1cn(C2CC2)c2cc(N3CCN(C/C(=N/OCc4ccc(Cl)cc4)c4cccs4)CC3)c(F)cc2c1=O	≤ 10	≤ 10	≤ 10	≤ 10	≤ 10	≤ 10	≤ 10	
1.64 to 44.5	1.64 to 44.5	1.64 to 44.5	1.64 to 44.5	1.64 to 44.5	Cc1ccc2[nH]c(/C=C/C(=O)c3c(-c4ccccc4)c4cc(Cl)ccc4[nH]c3=O)nc2c1								
					O=C(/C=C(O)/C=C/c1cc2ccccc2[nH]c1=O)/C=C/c1cc2ccccc2[nH]c1=O								IC50 (MCF7 [9]): 69.1 µM; IC50 (A549 [10]): 31.5 µM
					CCn1cc(C(=O)O)c(=O)c2cc(F)c(N3CCN(C/C(=N/OCc4ccc(Cl)cc4)c4ccco4)CC3)cc21	≤ 10	≤ 10	≤ 10	≤ 10	≤ 10	≤ 10	≤ 10	
					CCc1ccc2c(c1)c(=O)c1ccccc1n2Cc1cn(Cc2cc(OC)c(OC)c(OC)c2)nn1								IC50 (MCF7 [1]): > 100 µM; IC50 (T47D): > 100 µM; IC50 (MDA-MB-231): > 100 µM
1.64 to 44.5	1.64 to 44.5	1.64 to 44.5	1.64 to 44.5	1.64 to 44.5	Cc1ccc2[nH]c(=O)c(C(=O)/C=C/c3nc4ccccc4[nH]3)c(-c3ccccc3)c2c1								
					COc1ccc(Cn2cc(Cn3c4ccccc4c(=O)c4cc(OC)ccc43)nn2)cc1								IC50 (MCF7 [1]): 11 to 16.6 µM; IC50 (T47D): 11 to 16.6 µM; IC50 (MDA-MB-231): 11 to 16.6 µM
1.64 to 44.5	1.64 to 44.5	1.64 to 44.5	1.64 to 44.5	1.64 to 44.5	O=C(/C=C/c1nc2ccccc2[nH]1)c1c(O)nc2ccc(Cl)cc2c1-c1ccccc1								
					COc1cc(Cn2cc(Cn3c4ccccc4c(=O)c4cccc(F)c43)nn2)cc(OC)c1OC								IC50 (MCF7 [1]): > 100 µM; IC50 (T47D): > 100 µM; IC50 (MDA-MB-231): > 100 µM
					CCn1cc(C(=O)O)c(=O)c2cc(F)c(N3CCN(C/C(=N/OCc4ccccc4)c4ccco4)CC3)cc21	≤ 10	≤ 10	≤ 10	≤ 10	≤ 10	≤ 10	≤ 10	
1.64 to 44.5	1.64 to 44.5	1.64 to 44.5	1.64 to 44.5	1.64 to 44.5	O=C(/C=C/c1nc2cc(F)c(F)cc2[nH]1)c1c(-c2ccc(F)cc2)c2cc(Cl)ccc2[nH]c1=O								
					CCn1cc(C(=O)O)c(=O)c2cc(F)c(N3CCN(C/C(=N/OC)c4ccco4)CC3)cc21	> 100	> 100	> 100	> 100	> 100	> 100	> 100	
1.64 to 44.5	1.64 to 44.5	1.64 to 44.5	1.64 to 44.5	1.64 to 44.5	O=C(/C=C/c1nc2cc(F)ccc2[nH]1)c1c(-c2ccc(F)cc2)c2cc(F)ccc2[nH]c1=O								
					O=C(O)c1cn(C2CC2)c2cc(N3CCN(C/C(=N/O)c4ccco4)CC3)c(F)cc2c1=O	> 100	> 100	> 100	> 100	> 100	> 100	> 100	
1.64 to 44.5	1.64 to 44.5	1.64 to 44.5	1.64 to 44.5	1.64 to 44.5	O=C(/C=C/c1nc2ccccc2[nH]1)c1c(-c2ccccc2)c2cc(Br)ccc2[nH]c1=O								
					COc1cc(Cn2cc(Cn3c4ccccc4c(=O)c4ccccc43)nn2)cc(OC)c1OC								IC50 (MCF7 [1]): > 100 µM; IC50 (T47D): > 100 µM; IC50 (MDA-MB-231): > 100 µM
1.64 to 44.5	1.64 to 44.5	1.64 to 44.5	1.64 to 44.5	1.64 to 44.5	O=C(/C=C/c1nc2cc(F)c(F)cc2[nH]1)c1c(-c2ccc(F)cc2)c2cc(F)ccc2[nH]c1=O								
1.64 to 44.5	1.64 to 44.5	1.64 to 44.5	1.64 to 44.5	1.64 to 44.5	O=C(/C=C/c1nc2ccccc2[nH]1)c1c(-c2ccccc2)c2ccccc2[nH]c1=O								
1.64 to 44.5	1.64 to 44.5	1.64 to 44.5	1.64 to 44.5	1.64 to 44.5	O=C(/C=C/c1nc2cc(F)c(F)cc2[nH]1)c1c(-c2ccc(F)c(F)c2)c2cc(F)ccc2[nH]c1=O								
					COc1cc(Cn2cc(Cn3c4ccccc4c(=O)c4cc(Br)ccc43)nn2)cc(OC)c1OC								IC50 (MCF7 [1]): > 100 µM; IC50 (T47D): > 100 µM; IC50 (MDA-MB-231): > 100 µM
1.64 to 44.5	1.64 to 44.5	1.64 to 44.5	1.64 to 44.5	1.64 to 44.5	Cn1c(=O)c(C(=O)/C=C/c2nc3cc(F)ccc3[nH]2)c(-c2ccccc2)c2cc(Cl)ccc21								
					N=c1c(-c2nn3c(-c4cn(C5CC5)c5cc(N6CCNCC6)c(F)cc5c4=O)nnc3s2)cn(C2CC2)c2cc(N3CCNCC3)c(F)cc12	≤ 10	≤ 10	≤ 10	≤ 10	≤ 10	≤ 10	≤ 10	
					CO/N=C(/CN1CCN(c2cc3c(cc2F)c(=O)c(C(=O)O)cn3C2CC2)CC1)c1ccco1	> 100	> 100	> 100	> 100	> 100	> 100	> 100	
					CCn1cc(C(=O)O)c(=O)c2cc(F)c(N3CCN(C/C(=N/O)c4ccco4)CC3)cc21	> 100	> 100	> 100	> 100	> 100	> 100	> 100	
1.64 to 44.5	1.64 to 44.5	1.64 to 44.5	1.64 to 44.5	1.64 to 44.5	O=C(/C=C/c1nc2cc(Br)ccc2[nH]1)c1c(-c2ccccc2)c2cc(Cl)ccc2[nH]c1=O								
					O=C(O)c1cn(C2CC2)c2cc(N3CCN(C/C(=N/OCc4ccc(Cl)cc4)c4ccco4)CC3)c(F)cc2c1=O	≤ 10	≤ 10	≤ 10	≤ 10	≤ 10	≤ 10	≤ 10	
